This assay concerns predicted CTL epitopes from Tie-2. As to the kind of experiment: Ex-vivo IFNγ ELISPOT with predicted CTL epitopes from Tie-2. In kind it is in vivo, HHDII mice. The following applies: for Peptide-specific IFNγ response, highest mean value: peptide in IFA. The method, then:
(C) and (D) HHDII mice were either untreated (c) or treated with 400 μg PC61mAb i.p., (d). 4 days later, all mice were immunized with the Tie2 C200HFc DNA construct. DNA immunizations were repeated at 7 day intervals for a total of 3 immunisations. 6 days after the final immunisation, splenocytes were harvested and restimulated in an ex-vivo IFNγ ELISPOT assay with 1 μg/ml of each of the predicted CTL epitopes from Tie-2. Bars indicate the mean of triplicate values for each individual mouse, normalized to background controls, with error bars representing the standard deviation from the mean.
(E) and (F), HHDII mice were either untreated (e) (n=3) or treated (f) (n=2) with 400 μg PC61 antibody i.p. After 4 days, all mice were immunised with 100 μg Z12 peptide and 100 μg Z48 peptide, mixed 1:1 in IFA (s.c.). Repeat peptide immunisations were administered 7 days after the first peptide immunisation. Splenocytes were harvested 14 days after the final immunisation and restimulated with 1 μg/ml Z12 peptide (black bars) or media alone (open bars) in an IFNγ ELIspot assay. Bars indicate the mean of triplicate values with error bars representing the standard deviation from the mean.
(G) HHDII mice were immunised with 100 μg Z12 peptide mixed 1:1 in IFA (s.c.). […] Splenocytes were harvested 7 days after the final immunisation and analysed for the presence of epitope specific responses to increasing peptide concentration in IFNγ elispot assay. Responses are measured from individual mice as spots/million splenocytes and avidity is assigned as the concentration which gives 50% maximal effector function.
(H) HHDII mice were immunised with ImmunoBody DNA construc DCIB71 via gene gun at days 0, 7 and 14. Splenocytes were harvested 7 days after the final immunisation and analysed for the presence of epitope specific responses to increasing peptide concentration in IFNγ elispot assay. Responses are measured from individual mice as spots/million splenocytes and avidity is assigned as the concentration which gives 50% maximal effector function. […]

On to ILINSLPLV [Z282, I L I N S L P L V], for which the “Peptide-specific IFNγ response, highest mean value” (CD25 depleted animals, mouse 2) is 137 SFC/million cells and the “Peptide-specific IFNγ response, highest mean value” (non-depleted animals, mouse 3) is listed as 215 SFC/million cells. Besides, for the setting “three weekly immunisations, peptide titration”, the “z12 epitope specific responses (frequency and avidity)” value was “low frequency and avidity epitope specific responses”.

Values taken from patent publication US8742088B2, “Nucleic acids encoding antibodies or portions thereof comprising a heterologous T cell epitope and their use in modulating T cell responses” (priority 2007, dated 2014).
